How the values were obtained:
[1] = In vitro radiochemical stability; format: physicochemical; settings: 40°C, after 30 min of incubation
Protocol: In vitro radiochemical stabilities of [^18F]1 and [^18F]2 were investigated in 0.9% NaCl solution, Dulbecco’s phosphate buffer, 0.01 M Tris–HCl (pH 7.4 at 21°C), and EtOH at 40°C for 90 min. Samples were taken at 15, 30, 60, and 90 min after incubation and analyzed by radio-TLC and radio-HPLC.

[2] = Ex vivo biodistribution (organ distribution) in mice; settings: i.v. 300 to 400 kBq, female CD1 mice
Protocol: (§1) Female CD1 mice (10 to 12 weeks old, 20 to 25 g) received an injection of 300 to 400 kBq of [^18F]1 or [^18F]2 with specific activities of >450 GBq/μmol in 200 μL of 0.9% NaCl/10% EtOH into the tail vein. The animals were anesthetized (CO2/O2 mixture) for blood and urine sampling and euthanized by luxation of the cervical spine at 5, 30, and 60 min after injection (p.i.) (n = 2 to 5 per time). The organs of interest were removed and weighed, and the activities were measured by γ counting using a calibrated γ counter Wallac Wizard 1470 (Perkin Elmer Inc., Waltham, MA, USA). The percentage of injected dose per gram of wet tissue (% ID/g wet weight) was calculated.

[3] = target: CB2R (Mus musculus, UniProt P47936); parameters: species or system female CD1 mice; settings: female, CD1, mouse, in vivo
Protocol: as §1
(3 mg/kg i.p. in 0.9% saline, 10 min before the injection of the radiotracer) at 60 min p.i. (n = 2 to 5). The unpaired two-tailed t test was used to compare the results between the groups. We considered differences to be significant at a p value <0.05.

[4] = Ex vivo metabolite studies (radio-HPLC of plasma and brain extracts); format: in vivo, CD1 mice; settings: mice
Protocol: [^18F]1 and [^18F]2 (100 to 150 MBq, 250 to 450 GBq/μmol in 150 μL NaCl 0.9%/10% EtOH) were injected via the tail vein in CD1 male mice (10 to 12 weeks old, 20 to 25 g). Blood and urine samples were obtained at 30 and 60 min p.i. (n = 3 per time point). Twofold extractions of plasma and brain samples (n = 3) were performed using ice-cold MeCN according to the standard protocol established in our group (see [47, 48]). Briefly, plasma samples were obtained by centrifugation of the blood at 4,000×g at 4°C for 10 min, and brain samples were homogenized in ice-cold 50 mM Tris–HCl (pH = 7.4). The samples were vortexed, incubated on ice, and centrifuged at 10,000×g for 3 min. Supernatants were collected, and the precipitates were re-dissolved in ice-cold MeCN for the second extraction. The supernatants from the two extractions were combined, concentrated under a gentle argon stream at 65°C, and analyzed by radio-TLC and gradient analytical HPLC (see ‘Radiochemistry’ section). Aliquots from each extraction supernatant and the precipitates were also taken and quantified by γ counting (Wallac Wizard 1470, Perkin Elmer Inc., Waltham, MA, USA) along with the respective aliquots of intact plasma samples and brain homogenates. A moderate recovery of radioactivity was obtained from plasma samples and brain homogenates (60% to 70%). Radiometabolites of [^18F]17 in the plasma, spleen, and brain were assessed at 30 and 60 min p.i.

Chain of CB2R (P47936 whole entry): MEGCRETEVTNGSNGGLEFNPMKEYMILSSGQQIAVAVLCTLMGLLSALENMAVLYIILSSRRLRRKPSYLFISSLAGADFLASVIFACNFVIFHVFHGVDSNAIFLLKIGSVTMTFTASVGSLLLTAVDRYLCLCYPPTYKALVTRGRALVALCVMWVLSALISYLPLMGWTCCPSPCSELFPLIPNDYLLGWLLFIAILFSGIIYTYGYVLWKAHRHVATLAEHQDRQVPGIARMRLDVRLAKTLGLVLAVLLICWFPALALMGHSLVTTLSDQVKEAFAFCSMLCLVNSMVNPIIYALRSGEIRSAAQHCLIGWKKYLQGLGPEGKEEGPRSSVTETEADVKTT

## O=C(CCc1nc(-c2ccc(F)cc2Br)no1)Nc1ccc2c(c1)c1ccccc1n2CC[18F] [[^18F]1]
[1]; 0.9% NaCl
  intact tracer: 95%
[1]; Dulbecco’s phosphate buffer
  intact tracer: 94%
[1]; EtOH
  intact tracer: 93%
[1]; Tris–HCl
  intact tracer: 89%
[2]
  Radioactivity uptake, Adrenals, Control 5 min: 4.16 ± 6.23 % ID/g
  Radioactivity uptake, Adrenals, Control 30 min: 3.31 ± 0.99 % ID/g
  Radioactivity uptake, Adrenals, Control 60 min: 3.16 ± 1.25 % ID/g
  Radioactivity uptake, Bladder, Control 5 min: 2.23 ± 1.39 % ID/g
  Radioactivity uptake, Bladder, Control 30 min: 1.65 ± 0.43 % ID/g
  Radioactivity uptake, Bladder, Control 60 min: 3.27 ± 1.94 % ID/g
  Radioactivity uptake, Blood, Control 5 min: 1.94 ± 0.44 % ID/g
  Radioactivity uptake, Blood, Control 30 min: 1.44 ± 0.41 % ID/g
  Radioactivity uptake, Blood, Control 60 min: 1.94 ± 0.69 % ID/g
  Radioactivity uptake, Brain, Control 5 min: 1.31 ± 0.24 % ID/g
  Radioactivity uptake, Brain, Control 30 min: 0.76 ± 0.22 % ID/g
  Radioactivity uptake, Brain, Control 60 min: 0.92 ± 0.27 % ID/g
  Radioactivity uptake, Femur, Control 5 min: 2.00 ± 0.38 % ID/g
  Radioactivity uptake, Femur, Control 30 min: 1.37 ± 0.50 % ID/g
  Radioactivity uptake, Femur, Control 60 min: 1.84 ± 0.35 % ID/g
  Radioactivity uptake, Gonads, Control 5 min: 1.06 ± 0.94 % ID/g
  Radioactivity uptake, Gonads, Control 30 min: 1.02 ± 0.26 % ID/g
  Radioactivity uptake, Gonads, Control 60 min: 1.33 ± 0.50 % ID/g
  Radioactivity uptake, Heart, Control 5 min: 3.39 ± 0.45 % ID/g
  Radioactivity uptake, Heart, Control 30 min: 1.43 ± 0.47 % ID/g
  Radioactivity uptake, Heart, Control 60 min: 1.66 ± 0.37 % ID/g
  Radioactivity uptake, Kidney, Control 5 min: 13.40 ± 5.66 % ID/g
  Radioactivity uptake, Kidney, Control 30 min: 2.68 ± 0.37 % ID/g
  Radioactivity uptake, Kidney, Control 60 min: 1.65 ± 0.49 % ID/g
  Radioactivity uptake, Large intestine, Control 5 min: 1.91 ± 2.66 % ID/g
  Radioactivity uptake, Large intestine, Control 30 min: 3.24 ± 5.61 % ID/g
  Radioactivity uptake, Large intestine, Control 60 min: 1.54 ± 0.42 % ID/g
  Radioactivity uptake, Liver, Control 5 min: 11.00 ± 1.04 % ID/g
  Radioactivity uptake, Liver, Control 30 min: 4.38 ± 1.19 % ID/g
  Radioactivity uptake, Liver, Control 60 min: 5.29 ± 1.22 % ID/g
  Radioactivity uptake, Lung, Control 5 min: 3.68 ± 0.62 % ID/g
  Radioactivity uptake, Lung, Control 30 min: 1.65 ± 0.70 % ID/g
  Radioactivity uptake, Lung, Control 60 min: 1.77 ± 0.74 % ID/g
  Radioactivity uptake, Muscle, Control 5 min: 2.10 ± 0.33 % ID/g
  Radioactivity uptake, Muscle, Control 30 min: 1.02 ± 0.50 % ID/g
  Radioactivity uptake, Muscle, Control 60 min: 0.89 ± 0.19 % ID/g
  Radioactivity uptake, Pancreas, Control 5 min: 4.97 ± 0.62 % ID/g
  Radioactivity uptake, Pancreas, Control 30 min: 1.50 ± 0.74 % ID/g
  Radioactivity uptake, Pancreas, Control 60 min: 1.13 ± 0.11 % ID/g
  Radioactivity uptake, Plasma, Control 5 min: 2.52 ± 0.58 % ID/g
  Radioactivity uptake, Plasma, Control 30 min: 1.88 ± 0.58 % ID/g
  Radioactivity uptake, Plasma, Control 60 min: 2.50 ± 0.87 % ID/g
  Radioactivity uptake, Small intestine, Control 5 min: 4.36 ± 2.09 % ID/g
  Radioactivity uptake, Small intestine, Control 30 min: 10.51 ± 8.38 % ID/g
  Radioactivity uptake, Small intestine, Control 60 min: 22.03 ± 8.32 % ID/g
  Radioactivity uptake, Spleen, Control 5 min: 3.44 ± 0.77 % ID/g
  Radioactivity uptake, Spleen, Control 30 min: 1.46 ± 0.56 % ID/g
  Radioactivity uptake, Spleen, Control 60 min: 1.52 ± 0.62 % ID/g
  Radioactivity uptake, Stomach, Control 5 min: 2.05 ± 0.33 % ID/g
  Radioactivity uptake, Stomach, Control 30 min: 1.23 ± 0.36 % ID/g
  Radioactivity uptake, Stomach, Control 60 min: 2.70 ± 1.47 % ID/g
  Radioactivity uptake, Thymus, Control 5 min: 3.30 ± 0.58 % ID/g
  Radioactivity uptake, Thymus, Control 30 min: 1.57 ± 0.80 % ID/g
  Radioactivity uptake, Thymus, Control 60 min: 1.90 ± 0.98 % ID/g
[3]; 3 mg/kg, 1 h
  Radioactivity uptake, Adrenals, Blocking 60 min: 3.00 ± 0.64 % ID/g
  Radioactivity uptake, Bladder, Blocking 60 min: 5.07 ± 3.84 % ID/g
  Radioactivity uptake, Blood, Blocking 60 min: 1.43 ± 0.34 % ID/g
  Radioactivity uptake, Brain, Blocking 60 min: 0.66 ± 0.11 % ID/g
  Radioactivity uptake, Femur, Blocking 60 min: 1.49 ± 0.45 % ID/g
  Radioactivity uptake, Gonads, Blocking 60 min: 1.19 ± 0.30 % ID/g
  Radioactivity uptake, Heart, Blocking 60 min: 1.49 ± 0.29 % ID/g
  Radioactivity uptake, Kidney, Blocking 60 min: 1.74 ± 0.48 % ID/g
  Radioactivity uptake, Large intestine, Blocking 60 min: 1.63 ± 0.64 % ID/g
  Radioactivity uptake, Liver, Blocking 60 min: 4.22 ± 0.96 % ID/g
  Radioactivity uptake, Lung, Blocking 60 min: 1.47 ± 0.29 % ID/g
  Radioactivity uptake, Muscle, Blocking 60 min: 0.93 ± 0.23 % ID/g
  Radioactivity uptake, Pancreas, Blocking 60 min: 1.03 ± 0.26 % ID/g
  Radioactivity uptake, Plasma, Blocking 60 min: 1.87 ± 0.41 % ID/g
  Radioactivity uptake, Small intestine, Blocking 60 min: 19.39 ± 5.53 % ID/g
  Radioactivity uptake, Spleen, Blocking 60 min: 0.98 ± 0.21 % ID/g
  Radioactivity uptake, Stomach, Blocking 60 min: 1.84 ± 1.28 % ID/g
  Radioactivity uptake, Thymus, Blocking 60 min: 1.50 ± 0.35 % ID/g
[3]; 60 min
  % control, Adrenals: 95 % control
  % control, Bladder: 155 % control
  % control, Blood: 74 % control
  % control, Brain: 72 % control
  % control, Femur: 81 % control
  % control, Gonads: 89 % control
  % control, Heart: 90 % control
  % control, Kidney: 106 % control
  % control, L. intestine: 106 % control
  % control, Liver: 80 % control
  % control, Lung: 83 % control
  % control, Muscle: 104 % control
  % control, Pancreas: 91 % control
  % control, Plasma: 75 % control
  % control, S. intestine: 88 % control
  % control, Spleen: 65 % control
  % control, Stomach: 68 % control
  % control, Thymus: 79 % control
[4]; brain homogenate extract, 30 min p.i. of [18F]1 or [18F]2, radio-HPLC
  Percentage of total activity in brain samples, 30 min p.i.: 68%
[4]; brain homogenate extract, 60 min p.i. of [18F]1 or [18F]2, radio-HPLC
  Percentage of total activity in brain samples, 60 min p.i.: 35%
[4]; plasma, 30 min p.i. of [18F]1 or [18F]2, radio-HPLC
  Relative percentage of intact tracer and radiometabolites, Plasma 30 min p.i.: 60%
[4]; plasma, 60 min p.i. of [18F]1 or [18F]2, radio-HPLC
  Relative percentage of intact tracer and radiometabolites, Plasma 60 min p.i.: 7%

— publication PMC3856494, “Radiofluorination and biological evaluation of N-aryl-oxadiazolyl-propionamides as potential radioligands for PET imaging of cannabinoid CB2 receptors” (Organic and Medicinal Chemistry Letters, 2013)
